Source: ChEMBL document CHEMBL1134914, “Acyl dipeptides as reversible caspase inhibitors. Part 1: initial lead optimization” (Bioorg Med Chem Lett, 2002)

Columns and labels:
[1] = target: T1, Caspase-7 (Homo sapiens, UniProt P55210); test: Inhibitory concentration against caspase-7
T1 sequence (P55210 whole entry): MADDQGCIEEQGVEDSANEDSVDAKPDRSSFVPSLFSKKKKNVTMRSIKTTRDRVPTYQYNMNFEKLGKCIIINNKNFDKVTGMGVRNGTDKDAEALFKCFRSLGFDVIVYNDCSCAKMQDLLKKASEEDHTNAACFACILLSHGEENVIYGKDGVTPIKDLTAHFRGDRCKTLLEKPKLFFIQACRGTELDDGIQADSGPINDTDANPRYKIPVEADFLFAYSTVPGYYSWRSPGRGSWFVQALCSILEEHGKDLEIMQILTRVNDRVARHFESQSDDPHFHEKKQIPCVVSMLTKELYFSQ

[2] = target: T1, Caspase-7; test: Inhibitory concentration of compound required against Caspase-7 compared to acylated dipeptides
[3] = target: T2, Caspase-3 (Homo sapiens, UniProt P42574); test: Inhibitory concentration of compound required against Caspase-3 compared to acylated dipeptides
T2 sequence (P42574 whole entry): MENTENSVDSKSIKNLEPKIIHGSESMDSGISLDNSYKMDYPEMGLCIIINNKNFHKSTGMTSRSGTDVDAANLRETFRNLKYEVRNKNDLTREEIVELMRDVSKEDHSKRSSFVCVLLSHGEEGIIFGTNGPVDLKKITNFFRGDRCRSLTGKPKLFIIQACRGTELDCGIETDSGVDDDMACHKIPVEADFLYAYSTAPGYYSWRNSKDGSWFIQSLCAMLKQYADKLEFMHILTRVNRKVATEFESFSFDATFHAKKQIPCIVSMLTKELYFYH

[4] = target: T3, Caspase-6 (Homo sapiens, UniProt P55212); test: Inhibitory concentration required against caspase-6
T3 sequence (P55212 whole entry): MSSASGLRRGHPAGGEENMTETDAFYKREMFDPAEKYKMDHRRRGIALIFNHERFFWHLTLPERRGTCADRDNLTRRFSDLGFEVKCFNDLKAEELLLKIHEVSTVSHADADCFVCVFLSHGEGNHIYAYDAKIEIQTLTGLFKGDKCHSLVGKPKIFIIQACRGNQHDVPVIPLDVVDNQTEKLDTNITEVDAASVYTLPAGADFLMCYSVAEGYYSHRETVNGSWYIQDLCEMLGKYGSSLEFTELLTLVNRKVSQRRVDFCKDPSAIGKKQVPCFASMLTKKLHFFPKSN

[5] = target: T3, Caspase-6; test: Inhibitory concentration of compound required against Caspase-6 compared to acylated dipeptides
[6] = target: T4, Caspase-8 (Homo sapiens, UniProt Q14790); test: Inhibitory concentration of compound required against Caspase-8 compared to acylated dipeptides
[7] = target: T4, Caspase-8; test: Inhibitory concentration against caspase-8
[8] = target: T2, Caspase-3; test: Inhibitory concentration against caspase-3
[9] = target: Caspase-1 (Mus musculus) (UniProt P29452)
[10] = target: Caspase-1 (Mus musculus) (UniProt P29452); test: Inhibitory concentration of compound required against Caspase-1 compared to acylated dipeptides

T4 sequence (Q14790 217-374 limits assumed): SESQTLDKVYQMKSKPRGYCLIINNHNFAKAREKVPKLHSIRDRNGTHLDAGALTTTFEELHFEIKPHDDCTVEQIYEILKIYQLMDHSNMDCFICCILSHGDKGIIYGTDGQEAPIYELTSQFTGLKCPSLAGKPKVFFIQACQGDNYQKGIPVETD
T4 sequence (Q14790 385-479 limits assumed): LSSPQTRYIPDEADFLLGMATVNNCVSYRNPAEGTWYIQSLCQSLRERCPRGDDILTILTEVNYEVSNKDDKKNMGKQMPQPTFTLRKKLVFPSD
Caspase-1 (Mus musculus), sequence (P29452 whole entry, looked up): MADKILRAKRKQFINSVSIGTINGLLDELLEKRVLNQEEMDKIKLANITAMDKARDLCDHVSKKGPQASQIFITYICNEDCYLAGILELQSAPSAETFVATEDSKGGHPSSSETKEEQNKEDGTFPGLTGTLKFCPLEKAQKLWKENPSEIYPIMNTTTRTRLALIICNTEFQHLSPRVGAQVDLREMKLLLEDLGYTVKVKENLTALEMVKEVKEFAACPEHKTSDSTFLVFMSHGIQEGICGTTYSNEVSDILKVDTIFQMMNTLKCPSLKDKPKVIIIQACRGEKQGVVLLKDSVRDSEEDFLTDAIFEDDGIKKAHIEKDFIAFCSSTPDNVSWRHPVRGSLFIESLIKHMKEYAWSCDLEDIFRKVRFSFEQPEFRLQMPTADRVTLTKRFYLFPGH

CC(C)C[C@H](NC(=O)COc1ccc2ccccc2c1)C(=O)N[C@H]1CC(=O)OC1O (some centres undefined)
IC50 [1]: 8.87 µM
IC50 [2]: 8.87 µM
IC50 [3]: 0.94 µM
IC50 [4]: 18.6 µM
IC50 [5]: 18.6 µM
IC50 [6]: 10 µM
IC50 [7]: > 10 µM
IC50 [8]: 0.944 µM
IC50 [9]: 10 µM
IC50 [10]: 10 µM

CC(C)C[C@H](NC(=O)COc1c(Cl)cc(Cl)c2ccccc12)C(=O)N[C@H]1CC(=O)OC1O (some centres undefined)
IC50 [1]: 3.61 µM
IC50 [4]: 21.4 µM
IC50 [7]: 3.04 µM
IC50 [8]: 0.357 µM
IC50 [9]: 0.141 µM

CC(C)C[C@H](NC(=O)[C@H](CCC(=O)O)NC(=O)OCc1ccccc1)C(=O)N[C@H]1CC(=O)OC1O (some centres undefined)
IC50 [2]: 0.01 µM
IC50 [3]: 0.0023 µM
IC50 [6]: 0.03 µM
IC50 [10]: 0.0065 µM

CC(C)C[C@H](NC(=O)COc1ccc(-c2ccccc2)cc1)C(=O)N[C@H]1CC(=O)OC1O (some centres undefined)
IC50 [1]: 12 µM
IC50 [4]: 20.5 µM
IC50 [7]: 7.53 µM
IC50 [8]: 0.763 µM
IC50 [9]: 1.9 µM

CC(C)C[C@H](NC(=O)[C@H](Cc1ccccc1)NC(=O)OCc1ccccc1)C(=O)N[C@H]1CC(=O)OC1O (some centres undefined)
IC50 [2]: 0.68 µM
IC50 [3]: 0.137 µM
IC50 [5]: 2.53 µM
IC50 [6]: 8.7 µM
IC50 [10]: 0.043 µM

Cc1ccc2ccccc2c1OCC(=O)N[C@@H](CC(C)C)C(=O)N[C@H]1CC(=O)OC1O (some centres undefined)
IC50 [1]: 4.16 µM
IC50 [4]: 32.4 µM
IC50 [7]: 4.14 µM
IC50 [8]: 0.375 µM
IC50 [9]: 0.843 µM

CC(C)C[C@@H](NC(=O)OCc1ccccc1)C(=O)C[C@H]1CC(=O)OC1O (some centres undefined)
IC50 [1]: 21.9 µM
IC50 [4]: 14 µM
IC50 [7]: 50 µM
IC50 [8]: 3.47 µM
IC50 [9]: 18.8 µM

CC(=O)N[C@@H](C(=O)O)C(=O)N[C@@H](CCC(=O)O)C(=O)N[C@H](C(=O)N[C@H]1CC(=O)OC1O)C(C)C (some centres undefined)
IC50 [2]: 0.01 µM
IC50 [3]: 0.0035 µM
IC50 [5]: 0.01 µM
IC50 [6]: 0.08 µM
IC50 [10]: 0.05 µM

CC(C)C[C@H](NC(=O)Cc1ccc(-c2ccccc2)cc1)C(=O)N[C@H]1CC(=O)OC1O (some centres undefined)
IC50 [2]: > 10 µM
IC50 [4]: > 10 µM
IC50 [7]: > 10 µM
IC50 [8]: 5.06 µM
IC50 [9]: 7.43 µM
